Test results as given in US12029715B2, “Precursor compounds for providing retinoids of the vitamin A5 pathway and uses thereof” (UNIVERSITY OF DEBRECEN, priority 2015, dated 2024).
“Also recorded” adds a separate entry of the source.

Tests used:
hRXRα LBD = target: T1, hRXRα LBD (Homo sapiens, UniProt P19793); experiment: Fluorescence quenching assay, binding to RXRα LBD
T1 sequence (P19793 223-462): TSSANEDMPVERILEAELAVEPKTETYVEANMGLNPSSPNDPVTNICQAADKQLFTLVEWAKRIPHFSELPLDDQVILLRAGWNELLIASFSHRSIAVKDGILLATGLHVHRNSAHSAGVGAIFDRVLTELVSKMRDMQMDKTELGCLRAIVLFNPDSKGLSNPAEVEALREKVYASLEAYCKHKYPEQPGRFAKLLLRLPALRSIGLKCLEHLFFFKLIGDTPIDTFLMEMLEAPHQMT
Method: Quenching of tryptophan fluorescence was monitored at 10° C. using 5 nm of excitation and 5 nm of emission slit-width.

[1] = system: human oligodendrocytes cell cultures; experiment: Metabolic conversion in human oligodendrocytes cell culture (HPLC-MS); format: in vitro ADME; conditions: for 9CDHRA levels in cells after treatment (metabolism / accumulation): 10^−6M, n=3
Method in brief: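 Cultured human oligodendrocytes at 80% confluency were treated with each retinoid or carotenoid at 10^−6 M for 18 h, with ethanol vehicle as control. Harvested cells were analysed by HPLC-MS for 9CDHRA levels, n=3 with standard deviation.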

[2] = system: oligodendrocytes cell line 158N; experiment: Metabolic conversion in mouse oligodendrocytes cell culture (LC-MS); format: in vitro ADME; conditions: for 9CDHRA levels in cells after treatment: 10^−5M for 18 h; for ATROL levels in cells after treatment: 10^−6M
Method in brief: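 Mouse 158N oligodendrocytes at 70–80% confluency were treated with retinoid precursors or esters, with ethanol as vehicle, at 10^−6 M in one variant and from a 10^−2 M ethanol solution in the other. Cells were harvested after 18 h under limited light. Metabolites were analysed by LC-MS.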

C57BL/6N mice = experiment: Chronic social defeat stress model, forced swim test; format: in vivo, mouse
Method: (§1) The forced swim paradigm was carried out between 1 pm and 4 pm in a 3-litre glass beaker half-filled with water at 22-23° C. (the water depth was 17 cm). All mice were tested only once in this task. To this end, each mouse was lowered gently into the water and the time of immobility was scored during a 6-minute testing period. The mouse was judged immobile when it floated in an upright position and made only small movements to keep its head above the water. After 6 min, the mouse was taken out of the water, left to dry under a red light lamp and returned to its home cage. The immobility scores of each animal were used as an index of despair behavior.
(§2) Social defeat stress procedure was a modified version of the protocol previously described (Berton, McClung et al. 2006). C57BL/6N mice were defeated chronically for 10 consecutive days. Every day they were exposed to the physical contact with an unfamiliar CD1 aggressor in its home cage for maximal interaction time of 5 minutes. After each session of physical stress, C57BL/6N and CD1 mice were separated by a perforated wall and maintained in sensory contact for 24 h. After the last session of stress, mice were transferred into new cages and housed separately throughout the behavioral tests period. C57BL/6N control mice, similarly to the experimental animals, were housed two per cage separated by a metal perforated wall. Every day, they were exposed to the physical contact for 5 minutes.
For behavioral analysis, 9CDHROL and 9CDHBC were dissolved in ethanol, and then mixed with sunflower oil, so that the final solution contained 3% ethanol. Vehicle treatments consisted of 3% ethanol solution in sunflower oil. For memory studies treatments with 9CDHRA were administered by intraperitoneal injections at volume/weight ratio 3 ml/kg at 7 am and 7 hours before the beginning of testing. For tests with animal model of chronic social defeat, different treatments were administered by intraperitoneal injections at volume/weight ratio 3 ml/kg at 10 mg/kg for each substance between 5-6 pm every second day of stress protocol immediately after the stress session starting from day 1 of the stress protocol.
as §1, with “paradigm (Dalvi and Lucki, 1999)” for “paradigm”, “2-litre” for “3-litre”
as §2, with “(Berton” for “(Berton, McClung”, “C57BL/6N control mice, similarly to the experimental animals, were housed two per cage separated by a metal perforated wall. Every day, they were exposed to the physical contact for 5 minutes.” left out

[3] = system: Rbp1−/−, Rxrγ−/− and WT mice; experiment: Forced swim test after acute treatment; format: in vivo, mouse; conditions: for immobility (despair) in the forced swim test: acute i.p. treatment 5-6 h before the test
Method: as §1
Vehicle treatments consisted of 3% ethanol and 3% DMSO solution in sunflower oil. Treatments were administered by intraperitoneal injections at volume/weight ratio 3 ml/kg between 8-10 am and 5-6 h before the test as previously validated (Wietrzych-Schindler M, 2011).
as §1, with “paradigm (Dalvi and Lucki, 1999)” for “paradigm”, “2-litre” for “3-litre”

For `CC(C=CC1=C(C)CCCC1(C)C)=CC=CC(C)CC(=O)O` (stereo not drawn) [9CDHRA, 9-cis-13,14-dihydroretinoic acid], the Kd (hRXRα LBD) was 90 ± 20 nM, the “9CDHRA levels in cells after treatment (metabolism / accumulation)” value [1] was “strong accumulation” and the “9CDHRA levels in cells after treatment” value [2] was “very strong increase”. The “ATROL levels in cells after treatment” value [2] was “a low conversion or induced increase”, the “immobility time versus stressed, nontreated mice” value (C57BL/6N mice; 3 mg/kg) was “displayed anti-despair effects” and the “immobility time in the forced swim test” value (C57BL/6N mice; stressed mice, 1 or 3 mg/kg during the stress protocol) was “decreased such immobility in stressed mice in a dose dependently manner; also recorded: efficiently normalized immobility time”.
`CC1=C(/C=C/C(C)=C\C=C\C(C)CCO)C(C)(C)CCC1` (stereo not drawn) [9CDHROL, 9-cis-13,14-dihydroretinol] was tested, and the “9CDHRA levels in cells after treatment (metabolism / accumulation)” value [1] was “moderately but significantly metabolized”, the “precursor substrate of 9CDHROL” value ([1]; in vitro) was “excellent precursor substrates” and the “9CDHRA levels in cells after treatment” value [2] was “strong increase”. The “ATROL levels in cells after treatment” value [2] was “a low conversion or induced increase”, the “9CDHROL levels in cells after treatment” value ([2]; 10^−6 M, 18 hours) was “increases; also recorded: excellent/strongly” and the “conversion to 9CDHRA” value ([2]; data not shown) was “excellent precursor”. The “immobility time in the forced swim test” value (C57BL/6N mice; stressed mice, 10 mg/kg i.p. every second day of stress protocol, 10 mg/kg) was “decreased such immobility; also recorded: efficiently normalised immobility time”.
`CC1=C(/C=C/C(C)=C\C=C\[C@H](C)CC(=O)O)C(C)(C)CCC1` [(R)-9CDHRA, (9Z,13R)-13,14-Dihydroretinoic Acid] was tested, and the Kd (hRXRα LBD) was 90 ± 20 nM, the “immobility (despair) in the forced swim test” value ([3]; Rbp1−/− mice) was “reduce despair behavior; also recorded: reduced in dose dependent manner immobility” and the “dose attaining maximal effect on immobility in the forced swim test” value ([3]; Rbp1−/− mice, acute treatment) was 1 mg/kg. The “immobility time in the forced swim test” value ([3]; Rxrγ−/− mice, 2 mg treatment) was 120 ± 25 s.
In the case of `CC1(C)CCC(C)(C)c2cc(C3(c4ccc(C(=O)O)cc4)OCCO3)ccc21` [UVI2108, reference compound], the “immobility time in the forced swim test, compared with 9CDHRA” value (C57BL/6N mice; stressed mice, UVI2108 during the stress protocol) is reported as “comparable” and the “immobility (despair) in the forced swim test” value ([3]; Rbp1−/− mice) is reported as “reduced significantly immobility time”.
